Earlier results, collected in US11766428B2 (TAVANTA THERAPEUTICS HUNGARY INCORPORATED, priority 2018, dated 2023).

Assays:
[1] = not given; remark: listed apart in the source

Row | solubility in ethanol | solubility in water | circulating drug bound to plasma proteins ([1]; ex vivo, hypertensive patients) | influence of renal impairment on pharmacokinetics ([1]; human, in vivo) | parent compound excreted in the urine ([1]; human, in vivo) | therapeutic plasma level ([1]; human, in vivo) | effect of food on bioavailability ([1]; oral) | Compound
1 | sparingly soluble | slightly soluble |  |  |  |  |  | CCOC(=O)C1=C(COCCN)NC(C)=C(C(=O)OC)C1c1ccccc1Cl (racemic) [Amlodipine besylate, 3-ethyl-5-methyl (±)-2-[(2-aminoethoxy)methyl]-4-(2-chlorophenyl)-1,4-dihydro-6-methyl-3,5-pyridinedicarboxylate, monobenzenesulphonate]
2 |  |  | approximately 93% | not significantly influenced | 10% | 3 to 10 ng/mL | not altered by the presence of food | CCOC(=O)C1=C(COCCN)NC(C)=C(C(=O)OC)C1c1ccccc1Cl (stereo not shown) [amlodipine]
